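A five-concentration, 48-hour dose response in 96-well plates underlies each endpoint, interpolated linearly between surrounding concentrations. GI50 marks 50% less growth.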 Calls of active or inactive are those of the source. Rule as the data show it: active = GI50 up to about 1.1 µM and inactive = higher.
What was measured:
Test in all cases: inhibition of tumour cell growth, NCI panel, 48 h
[1] = test system: HT-29
[2] = test system: OVCAR-3
[3] = test system: HCT-116
[4] = test system: UACC-62
[5] = test system: SNB-19
[6] = test system: SNB-75
[7] = test system: MOLT-4
[8] = test system: HCC 2998
[9] = test system: 786-0
[10] = test system: DMS-273
[11] = test system: OVCAR-5
[12] = test system: SF-295
[13] = test system: Malme-3M
[14] = test system: HOP-62
[15] = test system: NCI-H522
[16] = test system: MCF7
[17] = test system: T47D
[18] = test system: DU-145
[19] = test system: PC-3
[20] = test system: SK-MEL-28

Structure (SMILES) | GI50 [1] | GI50 [2] | GI50 [3] | GI50 [4] | GI50 [5] | GI50 [6] | GI50 [7] | GI50 [8] | GI50 [9] | GI50 [10] | GI50 [11] | GI50 [12] | GI50 [13] | GI50 [14] | GI50 [15] | GI50 [16] | GI50 [17] | GI50 [18] | GI50 [19] | GI50 [20]
O=C(CO[N+](=O)[O-])OC/C=C/c1ccccc1 | > 100 µM (inactive) | > 100 µM (inactive) | > 100 µM (inactive) | > 10 µM (inactive) | > 100 µM (inactive) | > 100 µM (inactive) | > 100 µM (inactive) | > 100 µM (inactive) | > 100 µM (inactive) | > 100 µM (inactive) | > 100 µM (inactive) | > 100 µM (inactive) | > 100 µM (inactive) | > 100 µM (inactive) | > 100 µM (inactive) |  |  |  |  | 
Sc1ncnc2nc[nH]c12 [MERCAPTOPURINE ANHYDROUS] | 4.02 µM (inactive) | 0.857 µM (active) | 2.37 µM (inactive) | 1.76 µM (inactive) | 128 µM (inactive) | 8.75 µM (inactive) | 1.61 µM (inactive) | 3.51 µM (inactive) | 2.03 µM (inactive) | 0.426 µM (active) | 8.63 µM (inactive) | 5.81 µM (inactive) | 3.66 µM (inactive) | 1.75 µM (inactive) | 1.62 µM (inactive) | 1.64 µM (inactive) | 3.55 µM (inactive) | 2.51 µM (inactive) | 4.39 µM (inactive) | 372 µM (inactive)
Cn1c(=O)nc2n(-c3cccc(F)c3)c3ccccc3nc-2c1=O | 5.92 µM (inactive) | 3.57 µM (inactive) | 23.6 µM (inactive) | 3.12 µM (inactive) | 21.9 µM (inactive) | 24.8 µM (inactive) | 23.1 µM (inactive) | 13.4 µM (inactive) | 42 µM (inactive) | 13.8 µM (inactive) | 33.7 µM (inactive) | 24.9 µM (inactive) | 14.4 µM (inactive) | 53.2 µM (inactive) | 16.6 µM (inactive) |  |  |  |  | 
CC1(C)CCOC(Sc2ccccc2)C1 (stereo not given) |  | 87.1 µM (inactive) | 60.4 µM (inactive) | 38.5 µM (inactive) | > 100 µM (inactive) | 53.2 µM (inactive) | 23.2 µM (inactive) | > 100 µM (inactive) | > 100 µM (inactive) | 28.2 µM (inactive) |  | 66.2 µM (inactive) |  | > 100 µM (inactive) | 18.8 µM (inactive) |  |  |  |  | > 100 µM (inactive)
CC(=O)NC(C=O)C(O[C@H](C)C(=O)NC(C)C(=O)NC(CCC(N)=O)C(=O)OCc1ccccc1)C(O)C(O)COC(=O)CCNc1c2ccccc2nc2cccc([N+](=O)[O-])c12 (stereo not given in full) | 2.14 µM (inactive) | 1.85 µM (inactive) | 1.37 µM (inactive) | 3.23 µM (inactive) | 4.49 µM (inactive) | 3.97 µM (inactive) | 3.57 µM (inactive) | 1.54 µM (inactive) | 4.56 µM (inactive) | 2.69 µM (inactive) | 3.44 µM (inactive) | 13.1 µM (inactive) | 2.15 µM (inactive) | 2.95 µM (inactive) | 1.62 µM (inactive) |  |  |  |  | 3.19 µM (inactive)
CCOC(=O)c1oc2ccc([N+](=O)[O-])c3c2c1CCC3 | > 100 µM (inactive) | > 100 µM (inactive) | 51.1 µM (inactive) | 13.8 µM (inactive) | 34.7 µM (inactive) | 14 µM (inactive) | > 100 µM (inactive) | > 87.9 µM (inactive) | 25.6 µM (inactive) | 58.3 µM (inactive) | > 92 µM (inactive) | 23.9 µM (inactive) | > 63.4 µM (inactive) | 24.3 µM (inactive) | 35.2 µM (inactive) | > 76.6 µM (inactive) | > 31.6 µM (inactive) | > 100 µM (inactive) | > 100 µM (inactive) | > 82.4 µM (inactive)
N#CC(C#N)=c1[nH]c2cccc3c2-c2c(cccc2c3=C(C#N)C#N)[nH]1 | > 100 µM (inactive) | > 100 µM (inactive) | 80.7 µM (inactive) | > 100 µM (inactive) | > 100 µM (inactive) | 53.1 µM (inactive) | > 100 µM (inactive) | > 100 µM (inactive) | > 100 µM (inactive) | > 100 µM (inactive) | > 100 µM (inactive) | > 100 µM (inactive) | > 100 µM (inactive) | > 100 µM (inactive) | > 100 µM (inactive) |  |  |  |  | 
COc1cccc(/C=C/c2cc(OC)c(OC)c(OC)c2)c1 | 34.4 µM (inactive) | 26.8 µM (inactive) | 33 µM (inactive) | 25.4 µM (inactive) | 42.9 µM (inactive) | 18.5 µM (inactive) | 36.6 µM (inactive) | > 100 µM (inactive) | 30.5 µM (inactive) | 27.8 µM (inactive) | > 100 µM (inactive) |  | 34.8 µM (inactive) | 37 µM (inactive) | > 100 µM (inactive) |  |  |  |  | 38.5 µM (inactive)
O=C(c1ccc(Cl)cc1Cl)C1[C@H]2C(=O)N(c3ccc(Cc4ccc(N5C(=O)[C@@H]6ON(c7ccccc7)C(C(=O)c7ccc(Cl)cc7Cl)[C@@H]6C5=O)cc4)cc3)C(=O)[C@H]2ON1c1ccccc1 (stereo not given in full) | > 50 µM (inactive) | > 50 µM (inactive) | > 50 µM (inactive) | > 50 µM (inactive) | > 50 µM (inactive) | > 50 µM (inactive) | > 50 µM (inactive) | > 50 µM (inactive) | > 50 µM (inactive) | > 50 µM (inactive) | > 50 µM (inactive) | > 50 µM (inactive) | > 50 µM (inactive) | > 50 µM (inactive) | > 50 µM (inactive) |  |  |  |  | > 50 µM (inactive)
Brc1ccc(N2C[N+](c3ccc(Br)cc3)=NC(c3ccccc3)=N2)cc1 | 14.1 µM (inactive) |  | 18.8 µM (inactive) | 14.8 µM (inactive) | 17.3 µM (inactive) | 26.1 µM (inactive) | 14.2 µM (inactive) | 15.4 µM (inactive) | 16 µM (inactive) | 8.65 µM (inactive) | 16.4 µM (inactive) | 15.5 µM (inactive) | 16.7 µM (inactive) | 17.2 µM (inactive) | 19.6 µM (inactive) |  |  |  |  | 23 µM (inactive)
COC(CN1C(=O)c2cccc3cccc(c23)C1=O)OC | > 100 µM (inactive) | > 100 µM (inactive) | 46.2 µM (inactive) | 73.1 µM (inactive) | > 100 µM (inactive) | 43.4 µM (inactive) | 32.3 µM (inactive) | > 100 µM (inactive) | > 100 µM (inactive) | 48.9 µM (inactive) | > 100 µM (inactive) | > 100 µM (inactive) | > 100 µM (inactive) | 43.7 µM (inactive) |  |  |  |  |  | > 100 µM (inactive)
